Experimental data taken from US10955415B2, “CD247 as a biomarker for assessing the effect of chemotherapeutic and biological drugs” (YISSUM RESEARCH DEVELOPMENT COMPANY OF THE HEBREW …, priority 2011, dated 2021).
Entries after “also recorded” stand apart in the source; their conditions may differ.

Columns and labels:
CD247 (ζ chain) = tested on: CD247 (ζ chain); set-up: species or system mice; settings: mouse, in vivo; for increase in the expression value of CD247 upon treatment: ip
CD4+Foxp3+ Treg cells = tested on: CD4+Foxp3+ Treg cells; set-up: species or system mice; settings: mouse, in vivo
CD3ε chain = tested on: CD3ε chain; set-up: species or system mice; settings: mouse, in vivo
MDSCs (Gr1+CD11b+) = tested on: MDSCs (Gr1+CD11b+); set-up: species or system mice; settings: mouse, in vivo
MDSCs = assay type: in vivo, mice; settings: spleen of BCG-inflamed mice, monotherapy, MFI
[1] = tested on: CD11b+CD11c+ and CD11b+F4/80+ cells; assay: Myeloid differentiation state in spleen (DCs, macrophages, APC maturation); assay type: in vivo; settings: BCG-inflamed mice
Source text: FIG. 18A-18E. Splenocytes and PBLs from mice untreated (naïve), inflamed, or inflamed and treated with 5-FU or CPT-11 were fixed, permeabilized, and double stained for the expression of CD247 (ζ-chain) (FIGS. 18A, 18B) and CD3ε-chain (FIGS. 18D, 18E), as shown by mean fluorescence intensity (MFI), measured in gated CD3^+ cells. FIG. 18C: Splenocytes from mice, naïve, inflamed and inflamed treated with 5-FU or CPT-11, were labeled with CFSE and activated with anti-CD3 and anti-CD28 antibodies or left non-activated. The proliferative response was assessed by monitoring cell divisions of gated CFSE-labeled Thy1.2+ (CD90+) T-cells. The percent of proliferating cells was calculated and compared to steady state levels of non-activated cells per each group. Data from three independent experiments is presented (n=3). Statistical analyses using t test indicated significant differences at 95%. Means and SEM are shown. *, P<0.05; **, P<0.01. FIG. 18F-18I. For the detection of myeloid differentiation state, splenocytes from each group were stained for (18F) DC11b^+CD11c^+ cells (representing DCs), (18G) DC11b^+F4/80^+ cells (representing monocytes), (18H) CD11c^+MHCII^+CD80^+ cells (representing fully differentiated […] as antigen presenting cells) and (18I) F4/80^+MHCII^+CD80^+ cells (representing fully differentiated […] as antigen presenting cells). Data from three independent experiments (n=4) is presented. Statistical analyses using t test indicated significant differences at 95%. Means and SEM are shown. *, P<0.05; **, P<0.01; ***, P<0.001. Abbreviations: Nor. (normal), Rel. (relative), Inf. (inflamed), ce. Pro. (cell proliferation)
Isolated splenocytes and peripheral blood leukocytes (PBLs) were treated with erythrocyte lysis buffer and washed in PBS. Cells were pre-coated with anti-CD16/CD32 (Biolegend) for FcR blockage. For surface staining, cells were incubated for 30 min at 4° C. with FITC-labeled anti-Gr1, anti-CD11c, and anti-CD4; PE-labeled anti F4/80, anti-CD3ε, anti-CD45R/B220, and anti-mNKp46; and biotinylated anti-CD11b and anti-CD8 that were detected with streptavidin-Cy5 (Biolegend and eBioscience). Intracellular staining of CD247 cells was performed by subjecting the cells to fixation with paraformaldehyde (1%) for 20 min at 4° C., followed by washing and permeabilization for 10 min with saponin detergent (0.1%) at room temperature (RT). Cells were then washed and incubated with FITC-labeled monoclonal anti-CD247 (H146) (Abcam), or biotinylated monoclonal anti-CD247 (H146), which were subsequently detected with streptavidin-Cy5. FoxP3 staining was performed according to the manufacturer's instructions. Samples were analyzed using FACSCalibur with Cell Quest software (BD).

CD247 = assay: Adoptive transfer of CFSE-labeled normal splenocytes, CD247 in host and donor cells; assay type: in vivo, mice; settings: BCG-inflamed hosts, 24 h after transfer, spleen
Procedure: CFSE-labeled splenocytes from normal mice (donor cells) were adoptively transferred into mice untreated, inflamed, and inflamed treated i.p. with irinotecan (hosts). After 24 h, splenocytes from each group were harvested and stained for CD247 expression (MFI) in CD3+ T cells within the CFSE+ (donor-cell) or CFSE− (host-cell) population. Data from three independent experiments (n=4) is presented. Statistical analyses using t test indicated significant differences at 95% Cl. Means and SEM are shown. * P<0.05. Abbreviations: Ho. (host), Do. (donor), cont. (control).
CFSE-labeled splenocytes from normal mice (donor cells) were adoptively transferred into non-inflamed, inflamed, and inflamed mice treated i.p. with 5-FU (hosts). After 24 h, splenocytes from each group were harvested and stained for CD247 expression (MFI) in CD3+ T cells within the CFSE+ (donor-cell) or CFSE− (host-cell) population. Data from three independent experiments (n=4) is presented. Statistical analyses using t test indicated significant differences at 95% Cl. Means and SEM are shown. *, P<0.05. Abbreviations: Ho. (host), Do. (donor), cont. (control).
Next, the effect of etanercept treatment on the host's immune status as well as on adoptively transferred T- and NK-cells was examined. It should be noted that adoptively transferred T- and NK-cells being a treatment that is frequently used today in different immunotherapeutic regiments for various pathologies. To this end, CFSE-labeled normal splenocytes were administered, i.v., 1 day before cell harvest, at the peak of the inflammatory response (mimicking cell mediated therapies).

[2] = Spleen weight and size, BCG chronic inflammation mouse model; assay type: in vivo; settings: BCG-inflamed WT-mice, 2 days after third BCG injection
Procedure: FIG. 15B. Spleen weight (left) and size (right) in etanercept-treated and untreated mice (n=7) was evaluated 2 days following the third BCG injection. *P<0.003, **P<0.002 (t-test). Data are from two independent experiments (mean and s.d.).
Induced chronic inflammation in mice was established by sustained subcutaneous injections of the heat-killed Bacille Calmette Guerin strain of Mycobacterium tuberculosis, (231141; Difco Laboratories) (BCG, 50 μg per animal/dose) once a week, for three weeks. The first two BCG administrations were mixed 1:1 with Incomplete Freund's adjuvant (IFA) (Sigma), and the second boost delivery was given with PBS. Mice sacrifice and cell isolations were performed two days after the third injection. Spleen weight was measured and cells from the spleen and peripheral blood (PBLs) were analyzed. The results represent three independent experiments.

| Compound | CD247 expression in T cells, spleen (CD247 (ζ chain)) | increase in the expression value of CD247 upon treatment (CD247 (ζ chain)) | levels of Treg cells (CD4+Foxp3+) in spleen (CD4+Foxp3+ Treg cells) | CD3ε expression levels (CD3ε chain) | MDSC levels in peripheral blood (PBLs) (MDSCs (Gr1+CD11b+)) | MDSC levels in the spleen (MDSCs (Gr1+CD11b+)) | NO production by MDSCs (MDSCs) | ROS production by MDSCs (MDSCs) | CD247 expression in T cells, PBLs (CD247 (ζ chain)) | differentiated myeloid cells in spleen (CD11b+CD11c+ DCs, CD11b+F4/80+ macrophages) [1] | CD247 expression in host and adoptively transferred donor NK cells (CD247) | CD247 expression in host and adoptively transferred donor T cells (CD247) | spleen size and weight [2] |
| --- | --- | --- | --- | --- | --- | --- | --- | --- | --- | --- | --- | --- | --- |
| CS(=O)(=O)OCCCCOS(C)(=O)=O [Busulfan, 1,4-butanediol dimethanesulfonate] | initial recovery | about 23% | remained unchanged | remained uniform among the different groups | significant decline; also recorded: decrease; also recorded: reduced | significant decline; also recorded: decrease; also recorded: reduced |  |  |  |  |  |  |  |
| O=P1(N(CCCl)CCCl)NCCCO1 (stereo not shown) [Cyclophosphamide] | down-regulation of CD247 that was observed in the course of chronic inflammation was maintained |  | decrease | remained normal | significantly increased; also recorded: significant accumulation | remained high; also recorded: significantly increased | maintained high | maintained high |  |  |  |  |  |
| COc1cccc2c1C(=O)c1c(O)c3c(c(O)c1C2=O)C[C@@](O)(C(=O)CO)C[C@@H]3O[C@H]1C[C@H](N)[C@H](O)[C@H](C)O1 [Doxorubicin] | clear increase | about 24% | not affected; also recorded: no change | uniform among the different groups | significant decline; also recorded: decrease; also recorded: reduced | significant decline; also recorded: decrease; also recorded: reduced |  |  | clear increase |  |  |  |  |
| etanercept |  |  |  |  |  | decreased percentage of MDSCs |  |  |  | significant increase | significantly increased | significantly increased | reduced spleen size and weight |
